What all share (format): cell-based, human
In assay [1] the test system is HEC-1-A cells. In words: MTT cytotoxicity of anticancer peptides. On the procedure: (§1) Cells were seeded into 96-well tissue culture plates at a concentration of 1×10^4 cells/200 μl/well overnight. Subsequently, the cells were treated with serial dilutions of ACP, scrambled ACP, or non-ACP. After 48 h of incubation, the cell viability of each line was determined by the MTT colorimetric assay (Sigma-Aldrich).

The subject of the next assay is HUVEC. Conditions: MTT, 48 h, mean ± SD, ND: no detection, read-out: IC50 (50% decrease of cell viability). On the procedure:
as §1

The subject of assay [2] is HEC-1-A cells. In words: Wound healing assay (Culture-Insert). Conditions: peptides 50 µM, 24 h. On the procedure: HEC-1-A cells (3×10^4 cells/70 μl/well) were seeded into a Culture-Insert 2 well (Ibidi, Munich, Germany) overnight. Afterward, inserts were removed, peptides (50 µM) were added, the status of the scratch wounds was monitored using an inverted microscope at 0 h (removal of Culture-Insert) and 24 h, and representative images were collected. The results were presented as the percentage of wound closure, calculated as follows: [wound area (initial) - wound area (final)]/wound area (initial)×100. The wound area was measured using software image J.

Another assay deals with AKT. In words: Western blot of AKT phosphorylation. Particulars: HEC-1-A, 100 µM, 6 h (Fig. S3). As to the method:
The cells were lysed on ice with 100 μl of lysis buffer and centrifuged at 13,000 g for 20 min at 4 °C. The lysate proteins were quantified using BCA Protein Assay Reagent. Each sample load comprised 30 μg total proteins per lane and was resolved by 12.5% SDS-PAGE. After being transferred onto the PVDF membranes, the membranes were blocked with 5% skimmed dried milk for 1 h and incubated overnight with primary antibodies, including anti-DHCR24, anti-AKT, anti-pAKT, anti-p-GSK3beta, anti-mTOR, and anti-p-mTOR (dilution: 1:1,000; Thermo); anti-S6K1, anti-p-p53, anti-cyclin D1, and anti-cleaved caspase 3 (dilution: 1:500; Thermo); anti-pS6K1 (dilution: 1:2,000; Thermo); anti-p53 and anti-GSK3beta (dilution: 1:200; Thermo); anti-BAX (dilution: 1:2,000; Thermo); anti-p-FoxO3A, anti-HIF-1α, and anti-actin (dilution: 1:1,500; GeneTex Inc., Irvine, CA, USA). The membrane was then washed and incubated with anti-rabbit IgG secondary antibodies followed by horseradish peroxidase. The protein expressions were visualized with an ECL kit (Pierce, Rockford, IL, USA) according to the manufacturer's instructions. Actin acted as the loading control.
Figure S3. Q7 repressed the phosphorylation of AKT-kinase.
After 6 h incubation of Q7 (100 µM), sQ7 and nACP, the AKT protein expression of
HEC-1-A cells was detected by using western blotting.
(1 picture or pasted object on this page, not shown here)
For orientation: A western blot detects proteins with antibodies after separation by electrophoresis.

Where [3] appears, read: HEC-1-A, MTT, 48 h, mean ± SD, read-out: IC50 (50% decrease of cell viability).

Read-outs that look alike come from different tables or passages of the source. Where no end group is shown, it is not given here.

In the case of FKGGGPYGQGVTRGQDLSGKDF [ACP NO. 1], the IC50 in the assay with HEC-1-A cells [1] (setting [3]) came out at 27.5 ± 2.5 µM; with HUVEC it was 29.1 ± 1.72 µM. Take “RQPQNQRQEQFQEQR [sQ7, reference compound]”: the IC50 with HEC-1-A cells [1] (HEC-1-A, MTT, 0-400 μM, 48 h (Fig. 1A), mean ± SD, read-out: fifty percent of growth inhibition concentration (IC50)) came out at 158 ± 13.9 µM. As to `CSCC[C@H](N)C(=O)N[C@@H](CCC(=O)O)C(=O)N[C@@H](Cc1ccccc1)C(=O)N[C@H](C(=O)N[C@@H](C)C(=O)N[C@@H](CCCCN)C(=O)N[C@@H](CC(C)C)C(=O)N[C@@H](Cc1ccccc1)C(=O)N[C@@H](CCCCN)C(=O)N[C@@H](Cc1ccccc1)C(=O)N[C@@H](Cc1ccccc1)C(=O)N[C@@H](CCCCN)C(=O)N[C@@H](CC(=O)O)C(=O)N[C@@H](CC(C)C)C(=O)N[C@@H](CC(C)C)C(=O)NCC(=O)N[C@@H](CCCCN)C(=O)N[C@@H](Cc1ccccc1)C(=O)N[C@@H](CC(C)C)C(=O)NCC(=O)N[C@@H](CC(N)=O)C(=O)N[C@@H](CC(N)=O)C(=O)O)C(C)C` [ACP NO. 3], the IC50 came out at 8.78 ± 0.77 µM in the assay on HEC-1-A cells [1] (setting [3]) and 9.72 ± 0.84 µM in the assay with HUVEC. For EQQQQQQPQNRRFRE [Q7], the IC50 in the assay on HEC-1-A cells [1] (48 h) was 130 ± 7.53 µM. Take GLLGVLGSVAKHVLPHVVPVIAEHL [ACP NO. 8]: the values for the IC50 in the assay on HEC-1-A cells [1] (setting [3]) and in the assay with HUVEC were 23.7 ± 2.19 µM and 26.1 ± 2.38 µM, respectively.

The compound “nACP: non-ACP (nACP), human HSP27_36-50 (PRLPEEWSQWLGGSS; UniProt P04792 36-50, looked up, fragment)” showed a wound closure rate in the assay with HEC-1-A cells [2] of 85%. In the assay with AKT, the “level of phosphorylation of AKT” value was “no obvious effect”. Moreover, in the assay on HEC-1-A cells [1] (MTT, 48 h, up to 400 μM), the “toxic effects on HEC-1-A cells” value is listed as “not obviously toxic effects”.

The values are drawn from PMC9724248, “Anticancer peptide Q7 suppresses the growth and migration of human endometrial cancer by inhibiting DHCR24 expression and modulating the AKT-mediated pathway” (International Journal of Medical Sciences, 2022).
